From US5248771A, “Process for preparing no-carrier-added radiohalogenated vinyl nucleosides” (Triumf, priority 1991, dated 1993)
Where two headings read alike, the source gives them in different places.

How the values were obtained:
HSV-1 (ATCC Strain F) = assay: [125I]IVaraU uptake into HFF cells infected with HSV-1, gamma activity per tube; assay type: cell-based, HSV-1; HFF (Human Foreskin Fibroblast) cells; conditions: HSV-1 (ATCC Strain F) infected HFF cells, MOI 1.0, 2.3×10^6 cpm/ml, 6 hours, 37° C.
Experimental: (§1) Upright roller tubes were seeded with 1.5×10^5 HFF (Human Foreskin Fibroblast) cells/tube in a volume of 1.0 ml of Minimal Essential Medium (MEM) with added 5% FCS (Fetal Calf Serum) and incubated at 37° C. overnight. The growth media was poured off and replaced with 1.0 ml of viral growth media (Med 199 Hank's salts with 2% FCS) containing ^125 I-IVaraU (2.3×10^6 cpm/ml). 100 μl of virus (diluted to appropriate concentration in viral growth media) was added to assay tubes. In this case, a multiplicity of infection of 1.0 was used. 100 μl of viral growth media was added to the control (viral uninoculated) tubes.
(§2) The tubes were centrifuged 5000 g×30 minutes at 37° C., incubated at 37° C., 5% CO2 for 6 hours, and the media was then poured off. The tubes were washed with 4×2 mls warm "cell" phosphate buffered saline (PBS), and 1.0 ml of trypsin-versene solution was added and the tubes were incubated at 37° C. for 5-10 minutes. The cell sheets were removed and transferred to 4 ml polystyrene tubes. The gamma activity was counted with a Gamma counter.

HSV-2 (ATCC Strain G) = assay: [125I]IVaraU uptake into HFF cells infected with HSV-2, gamma activity per tube; assay type: cell-based, HSV-2; HFF (Human Foreskin Fibroblast) cells; conditions: HSV-2 (ATCC Strain G) infected HFF cells, MOI 1.0, 2.3×10^6 cpm/ml, 6 hours, 37° C.
Experimental: as §1, §2

[1] = test system: HFF (Human Foreskin Fibroblast) cells; assay: [125I]IVaraU uptake into uninoculated HFF cells (control), gamma activity per tube; assay type: cell-based; conditions: 2.3×10^6 cpm/ml, 6 hours, 37° C.
Experimental: as §1, §2

HSV 1 infected cells = assay: uptake of [125I]IVaraU by HSV 1 infected cells compared with uninfected and HSV 2 infected cells; assay type: cell-based
Experimental: as §1
The tubes were centrifuged 5000 g×30 minutes at 37° C., incubated at 37° C., 5% CO2 for 6 hours, and the media was then poured off. The tubes were washed with 4×2 mls warm "cell" phosphate buffered saline (PBS), and 1.0 ml of trypsin-versene solution was added and the tubes were incubated at 37° C. for 5-10 minutes. The cell sheets were removed and transferred to 4 ml polystyrene tubes. The gamma activity was counted with a Gamma counter. […]

in vivo = assay: in vivo; set-up: species or system HSV1; A/J mice; conditions: mouse, in vivo, iv, 1 μCurie in 100 μL i.v. tail vein, read-out: brain uptake, % dose per gram in entire brain
Source text: (§3) This example measured the biodistribution of [^125 I]-IVaraU in the bodies of mice infected with HSV throughout the entire body. The brain was emphasized. Various uninfected controls were included to make the interpretation clear.
(§4) […] strain A/J mice were used in all: (i) with [^125 I]IVaraU, 20 mice received HSV1 and 20 mice were uninfected; and (ii) with [^125 I]NaI (a control compared to IVaraU), again 20 mice received HSV1 and 20 mice were uninfected.
(§5) INFECTION: Seven days prior to injection of the drug, each A/J mouse was inoculated by scratching the lip and applying a suspension of herpes simplex virus 1 (HSV1); this was the Kastrukoff murine-adapted strain of HSV1. This inoculation technique is a literature technique which has been established to cause herpes foci of herpes infection in the brains of over 99% of mice so inoculated. See Kastrukoff LF, Lau AS, and Puterman ML. J Gen Virol 67 (1986) 613-621. The HSV1 inoculation may be considered to take place at time "zero minus seven days". ADMINISTRATION OF THE RADIOPHARMACEUTICAL: The mice were divided into four experimental groups based on the two variables +/- HSV1, and IVaraU/NaI. The infected mice were being compared to non-infected mice. The radiopharmaceutical ([^125 I]IVaraU or [^125 I]NaI) was diluted to give 1μ Curie per 100 μL. 100 μL was then injected into the tailvein of each mouse. (Injection may be considered to take place at "time zero".) ANALYSIS OF INDIVIDUAL BODY ORGANS: At times 1h, 4h, 24h, and 48h, 5 mice were taken from each experimental group and sacrificed by exsanguination (the carotid artery was severed with a surgical scalpel). Blood was collected. Each animal was dissected, and the following organs were removed: brain, liver, kidney, pancreas, spleen, stomach, heart, lung, and muscle. Each organ or tissue specimen was weighed and then ^125 I activity was counted in a gamma ray counter. From the data weight, ^125 I, and ^125 I injected dose result values of "% dose per gram" were calculated for the different tissue specimens.

[2] = test system: herpes simplex virus 1 (HSV1); assay: in vivo; set-up: species or system HSV1; A/J mice
Source text: as §3, §4, §5

HSV1 strain KOS = assay: [125I]IVaraU uptake in rabbit brain infected with HSV1, gamma counts of brain blocks; assay type: in vivo, HSV1; New Zealand White rabbits
Experimental: The rabbit brains were infected with HSV1and then [^125 I]IVaraU was injected. The infection was located by assaying for herpes antigen and also by considering the brain anatomy involved. The assay was performed for [^125 I]IVaraU by gamma ray counts on segments cut from the brain.
INFECTION: Three New Zealand White female rabbits ([…], 2.5-5.0 kg) were anaesthetized by standard intramuscular injections of ketamine and xylazine. A 3.5 inch french tomcat catheter was introduced into the right nostril and 100 μL of the virus inoculation solution was released onto the right cribiform plate (this is a non-invasive means to create a brain infection). The virus inoculation solution consisted of 3.7×10^6 plaque forming units per mL HSV1 strain KOS suspended in commercial media of the type "199 with Hanks' salts". Two rabbits denoted "A" and "B" received the virus suspension exactly as described. A third rabbit denoted "C" was a "control"; it received 100 μL "199 with Hanks' salts" but no virus. The three rabbits were returned to their cages; infection was allowed to develop for 5 days before the injection of [^125 I]VaraU was carried out. INJECTION OF DRUG: 5 days following HSV1 inoculation, each rabbit was given 0.1 to 0.2 millicuries [^125 I]IVaraU suspended in 1 mL standard phosphate buffered saline PBS). The drug was administered by injection into the right marginal ear vein. SACRIFICE OF THE RABBITS: 24H after the [^125 I]IVaraU injection, the rabbits were sacrificed by an overdose of the drug Somnotol (T.M.) (MTC Pharmaceuticals). Following death, each rabbit was perfused with 300-400 mL PBS introduced into the ascending aorta. (The perfusion procedure served to remove blood from vessels in the brain and the body in general.)
The skull was dissected; the brain was cut out and removed. The brain was then sectioned into thirty 0.5 cm thick coronal blocks. The cutting and numbering of the blocks was carried out in a systematic way with respect to brain anatomy. Brain blocks were immersed and stored in 10% formalin. COUNTING OF ^125 I ACTIVITY IN BRAIN BLOCKS: Each block was weighed and then counted in a well-type gamma ray counter. The "counts per minute per gram" was calculated for each block of tissue for rabbits "A", "B" and "C". From each "cpm per gram" in infected rabbits "A" and "B" was subtracted the "cpm per gram" in the corresponding brain block from the uninfected rabbit "C". (The typical value of "cpm per gram" was about 20,000 cpm per gram in rabbit "C".)

herpes infected tissue = conditions: S. Sacks, Abstract 97, 1988 Interscience Conference; cited from earlier work
[3] = cited from earlier work
[4] = cited from earlier work; remark: listed apart in the source
herpes virus = conditions: depending on the strain of herpes virus; cited from earlier work

O=c1[nH]c(=O)n([C@@H]2O[C@H](CO)[C@@H](O)[C@@H]2O)cc1/C=C/[125I] [[^125 I]IVaraU]
Activity/Tube (Average) (HSV-1 (ATCC Strain F)): 59,914 cpm
Activity/Tube (Average) (HSV-2 (ATCC Strain G)): 14,462 cpm
Activity/Tube (Average) [1]: 1,332 cpm
uptake by HSV 1 vs HSV 2 infected cells (HSV 1 infected cells; HSV 1 vs HSV 2 infected cells): HSV 1 infected cells took up more radio compound than HSV 2 infected cells
specific uptake by HSV 1 infected cells (HSV 1 infected cells; vs uninfected cells): taken up specifically by HSV 1 infected cells, as compared with uninfected cells
tissue uptake at 1 h (in vivo; Infected): 1.49 %ID/g
tissue uptake at 4 h (in vivo; Infected): 0.36 %ID/g
tissue uptake at 24 h (in vivo; Infected): 0.0379 %ID/g
tissue uptake at 48 h (in vivo; Infected): 0.0181 %ID/g
tissue uptake at 1 h (in vivo; Uninfected): 1.27 %ID/g
tissue uptake at 4 h (in vivo; Uninfected): 0.229 %ID/g
tissue uptake at 24 h (in vivo; Uninfected): 0.0024 %ID/g
tissue uptake at 48 h (in vivo; Uninfected): 0.0005 %ID/g
brain uptake Ratio infected/uninfected ([2]; 1H): 1.18
brain uptake Ratio infected/uninfected ([2]; 4H): 1.57
brain uptake Ratio infected/uninfected ([2]; 24H): 15.8
brain uptake Ratio infected/uninfected ([2]; 48H): 36.2
(corrected) activities in brain regions (HSV1 strain KOS; infected rabbits A and B minus uninfected C, forebrain): higher in the forebrain, especially in the olfactory lobes
activities towards the hindbrain (HSV1 strain KOS; infected rabbits, corrected): approached background
activity in right olfactory lobe vs trigeminal ganglia and Level 1 (HSV1 strain KOS; infected rabbits, corrected): higher than in the trigeminal ganglia and Level 1
activity in right vs left olfactory lobe (HSV1 strain KOS; infected rabbits, corrected, virus given in right nostril): higher in the right olfactory lobe than the left
typical cpm per gram in brain blocks of uninfected rabbit C (HSV1 strain KOS; uninfected rabbit "C", 24H after 0.1 to 0.2 millicuries i.v.): about 20,000 cpm per gram

O=c1[nH]c(=O)n([C@@H]2O[C@H](CO)[C@@H](O)[C@@H]2O)cc1/C=C/[123I] [[^123 I]IVaraU]
concentrated in herpes infected tissue (herpes infected tissue): concentrated in herpes infected tissue

O=c1[nH]c(=O)n([C@@H]2O[C@H](CO)[C@@H](O)[C@@H]2O)cc1/C=C/Br [BrVaraU, (E)-5(2 bromo vinyl)-arabinofuranosyl uracil]
metabolic stability in vivo [3]: appeared metabolically stable in vivo

O=c1[nH]c(=O)n([C@@H]2O[C@H](CO)[C@@H](O)[C@@H]2O)cc1/C=C/Cl [ClVaraU]
potency in vivo per unit weight [4]: less potent in vivo

O=c1[nH]c(=O)n([C@@H]2O[C@H](CO)[C@@H](O)[C@@H]2O)cc1/C=C/I [IVaraU]
concentration effectively inhibiting herpes virus (herpes virus): approximately 1×10^-9 g/mL
potency in vivo per unit weight [4]: highly potent in vivo per unit weight
metabolic stability in vivo [3]: appeared metabolically stable in vivo

O=c1[nH]c(=O)n([C@@H]2O[C@H](CO)[C@@H](O)[C@@H]2O)cc1/C=C/F [FVaraU]
potency in vivo per unit weight [4]: less potent in vivo
